Reference: PubChem BioAssay (NCI)
Values joined by “and” are separate entries in the source; they are usually repeats but may differ in a detail not shown here. Equal values may be shown once.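 Briefly, cells in 96-well plates were exposed to five compound concentrations for 48 h, and endpoints were estimated by linear interpolation. GI50 is the concentration that inhibits growth by half. The concentration for full growth arrest is given as TGI.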

Columns and labels:
Test in all cases: NCI tumour cell line growth inhibition, 48 h
[1] = system: DMS 114 small cell lung
[2] = system: MDA-MB-231 breast
[3] = system: TK-10 renal
[4] = system: BT-549 breast
[5] = system: 786-0 renal
[6] = system: MDA-MB-435
[7] = system: M14 melanoma
[8] = system: SR leukemia
[9] = system: MDA-N
[10] = system: HOP-18 NSCLC
[11] = system: T-47D breast
[12] = system: P388/ADR leukemia
[13] = system: XF 498 CNS
[14] = system: OVCAR-5 ovarian
[15] = system: OVCAR-8 ovarian
[16] = system: K-562 leukemia
[17] = system: CAKI-1 renal
[18] = system: SF-539 CNS
[19] = system: HCT-15 colon
[20] = system: SK-MEL-5 melanoma
[21] = system: KM12 colon
[22] = system: SNB-19 CNS
[23] = system: SNB-75 CNS
[24] = system: DLD-1 colon
[25] = system: RPMI-8226 leukemia
[26] = system: A549 NSCLC
[27] = system: DMS 273 small cell lung
[28] = system: SW-620 colon
[29] = system: CCRF-CEM leukemia
[30] = system: U251 CNS
[31] = system: ACHN renal
[32] = system: HT29 colon
[33] = system: UACC-257 melanoma
[34] = system: M19-MEL melanoma
[35] = system: SN12C renal
[36] = system: SK-MEL-28 melanoma
[37] = system: HOP-62 NSCLC
[38] = system: NCI-H460 lung
[39] = system: NCI-H23 lung
[40] = system: OVCAR-3 ovarian
[41] = system: HCC-2998 colon
[42] = system: COLO 205 colon
[43] = system: LOX IMVI melanoma
[44] = system: NCI-H226 lung
[45] = system: SF-295 CNS
[46] = system: MALME-3M melanoma
[47] = system: SK-MEL-2 melanoma
[48] = system: MOLT-4 leukemia
[49] = system: HL-60(TB) leukemia
[50] = system: SF-268 CNS
[51] = system: NCI-H522 lung
[52] = system: UO-31 renal
[53] = system: HCT-116 colon
[54] = system: OVCAR-4 ovarian
[55] = system: EKVX NSCLC
[56] = system: SNB-78 CNS
[57] = system: KM20L2 colon
[58] = system: RXF-631 renal
[59] = system: RXF 393 renal
[60] = system: SK-OV-3 ovarian
[61] = system: HOP-92 NSCLC
[62] = system: IGROV1 ovarian
[63] = system: LXFL 529 NSCLC
[64] = system: A498 renal
[65] = system: UACC-62 melanoma

## COC1C(O)CC(OC2CC(Oc3cc4cc5c(c(O)c4c(O)c3C)C(=O)[C@@H](OC3CC(OC4CC(OC6CC(C)(O)C(OC(C)=O)C(C)O6)C(O)C(C)O4)C(O)C(C)O3)[C@H]([C@H](OC)C(=O)[C@@H](O)[C@@H](C)O)C5)OC(C)C2OC(C)=O)OC1C (some centres undefined)
[1]
  GI50: 0.00328 µM
[2]
  GI50: 0.0101 µM
  TGI: 0.000467 µM and < 0.0234 µM
[3]
  GI50: < 0.0155 µM
  TGI: 0.0033 µM
[4]
  TGI: 0.0597 nM
[5]
  GI50: 0.000213 µM
[6]
  TGI: 0.000167 µM
[7]
  GI50: 0.0189 nM
  TGI: 0.000105 µM
[8]
  GI50: 0.0252 nM
  TGI: 0.000152 µM
[9]
  TGI: 0.000192 µM and < 0.0107 µM
[10]
  GI50: 0.0164 nM
[11]
  GI50: 0.0356 nM
  TGI: 0.00182 µM and < 0.215 µM
[12]
  GI50: 0.106 µM
  TGI: 9.49 µM and 8.82 µM

## N=C(N)SCc1cn2ccccc2n1
[13]
  TGI: > 100 µM
[1]
  TGI: > 100 µM
[14]
  TGI: > 100 µM
[15]
  TGI: > 100 µM
[16]
  TGI: > 100 µM
[3]
  TGI: > 100 µM
[17]
  TGI: > 100 µM
[18]
  TGI: > 100 µM
[19]
  TGI: > 100 µM
[20]
  TGI: > 100 µM
[5]
  TGI: > 100 µM
[21]
  TGI: > 100 µM
[22]
  TGI: > 100 µM
[23]
  TGI: > 100 µM
[24]
  TGI: > 100 µM
[25]
  TGI: > 100 µM
[26]
  TGI: > 100 µM
[27]
  TGI: > 100 µM
[28]
  TGI: > 100 µM
[7]
  TGI: > 100 µM
[29]
  TGI: > 100 µM
[30]
  TGI: > 100 µM
[31]
  TGI: > 100 µM
[32]
  TGI: > 100 µM
[33]
  TGI: > 100 µM
[34]
  TGI: > 100 µM
[35]
  TGI: > 100 µM
[8]
  TGI: > 100 µM
[36]
  TGI: > 100 µM
[37]
  TGI: > 100 µM
[38]
  TGI: > 100 µM
[39]
  TGI: > 100 µM
[40]
  TGI: > 100 µM
[41]
  TGI: > 100 µM
[42]
  TGI: > 100 µM
[43]
  TGI: > 100 µM
[44]
  TGI: > 100 µM
[45]
  TGI: > 100 µM
[46]
  TGI: > 100 µM
[47]
  TGI: > 100 µM
[48]
  TGI: > 100 µM
[49]
  TGI: > 100 µM
[10]
  TGI: > 100 µM
[50]
  TGI: > 100 µM
[51]
  TGI: > 100 µM
[52]
  TGI: > 100 µM
[53]
  TGI: > 100 µM
[54]
  TGI: > 100 µM
[55]
  TGI: > 100 µM
[56]
  TGI: > 100 µM

## O=C(CCc1nc(=S)[nH][nH]1)NC12CC3CC(CC(C3)C1)C2
[13]
  TGI: > 100 µM
[57]
  TGI: > 100 µM
[1]
  TGI: > 100 µM
[14]
  TGI: > 100 µM
[15]
  TGI: > 100 µM
[16]
  TGI: > 100 µM
[3]
  TGI: > 100 µM
[17]
  TGI: > 100 µM
[58]
  TGI: > 100 µM
[18]
  TGI: > 100 µM
[59]
  TGI: > 100 µM
[19]
  TGI: > 100 µM
[20]
  TGI: > 100 µM
[5]
  TGI: > 100 µM
[21]
  TGI: > 100 µM
[22]
  TGI: > 100 µM
[23]
  TGI: > 100 µM
[24]
  TGI: > 100 µM
[26]
  TGI: > 100 µM
[27]
  TGI: > 100 µM
[28]
  TGI: > 100 µM
[7]
  TGI: > 100 µM
[29]
  TGI: > 100 µM
[30]
  TGI: > 100 µM
[31]
  TGI: > 100 µM
[32]
  TGI: > 100 µM
[33]
  TGI: > 100 µM
[34]
  TGI: > 100 µM
[35]
  TGI: > 100 µM
[8]
  TGI: > 100 µM
[36]
  TGI: > 100 µM
[37]
  TGI: > 100 µM
[60]
  TGI: > 100 µM
[61]
  TGI: > 100 µM
[38]
  TGI: > 100 µM
[39]
  TGI: > 100 µM
[40]
  TGI: > 100 µM
[41]
  TGI: > 100 µM
[42]
  TGI: > 100 µM
[43]
  TGI: > 100 µM
[44]
  TGI: > 100 µM
[45]
  TGI: > 100 µM
[46]
  TGI: > 100 µM
[47]
  TGI: > 100 µM
[49]
  TGI: > 100 µM
[10]
  TGI: > 100 µM
[62]
  TGI: > 100 µM
[51]
  TGI: > 100 µM
[63]
  TGI: > 100 µM
[52]
  TGI: > 100 µM
[53]
  TGI: > 100 µM
[54]
  TGI: > 100 µM
[64]
  TGI: > 100 µM
[65]
  TGI: > 100 µM
[55]
  TGI: > 100 µM
[56]
  TGI: > 100 µM
